Reference: US20070203079A1, “Methods of using small molecule compounds for neuroprotection” (priority 2005, published 2007)
Structures can show the parent of a compound that is named as a salt.

What was measured:
Format in all cases: in vivo, C. elegans
[1] = tested on: Pdat-1::GFP+Pdat-1::α-synuclein+Pdat-1::torsinA worms; assay: α-synuclein toxicity assay, wt torsinA
Text: (§1) We have previously shown that torsinA can prevent dopamine (“DA”) neuron degeneration resulting from overexpression of α-synuclein in the DA neurons of C. elegans, while torsinA (“ΔE”) has a reduced neuroprotection (Cao et al., J Neurosci, 2005, 25(1): 3801-3812). Specifically, only 26.1±5.3% of the worms expressing Pdat-1::GFP+Pdat-1::α-synuclein maintained all 4 wildtype CEP DA neurons as 4 day adults while the percentages of the worms expressing Pdat-1::GFP+Pdat-1::α-synuclein+Pdat-1::torsinA and Pdat-1::GFP+Pdat-1::α-synuclein+Pdat-1:: torsinA (ΔE) are 57.3±1.6% and 42.2±7.3%, respectively (Cao et al., J Neurosci, 2005, 25(1): 3801-3812) (FIG. 8).
(§2) All molecules are coded by Prestwick Library number. TorsinA-dependent compounds identified from the aggregation assay have torsinA-specific effects and, therefore, are likely to function in the same manner in the α-synuclein toxicity assay. All three α-synuclein transgenic lines were exposed to the five torsinA-dependent compounds to determine their torsinA-specificity (FIG. 9). As expected, none of these compounds had any effect in Pdat-1::GFP+Pdat-1::α-synuclein when torsinA expression is absent.

[2] = tested on: protein misfolding and aggregation in transgenic worms; assay: Corrective assay of protein aggregation (drug from L2 stage onward); details: drug exposure from L2 stage onward; scored at L3 and young adult
Method: To see the corrective effect of the candidate drug compounds on protein misfolding and aggregation, five gravid adult worms were placed onto a solvent control plate and grown at 20° C. for approximately 3 days. 35-40 Fl worms at L2 stage were picked and transferred to a drug plate. Thirty worms at L3 stage were counted for aggregate number 8 hours later. Thirty young adults were analyzed 32 hours later.
(§3) To calculate the scaled effectiveness of special regimen of drugs on worms based on standardized decrease in protein aggregates. The following formula was used: (A−B)/(A−C)×100%, where
(§4) A=number of aggregates for worms growing on solvent control plates
(§5) B=number of aggregates for worms grown on the specific drug plate for the entire life of the worms
C=number of aggregates for worms that received exposure from L2 stage (until adulthood)
(§6) If the regimen has no effect, the value would equal 0%. Conversely, if the regimen was as effective as raising the worms on the drug for their entire life, the value would equal 100%.

[3] = tested on: protein misfolding and aggregation in transgenic worms; assay: Preventative assay of protein aggregation (drug from hatching to L2 stage); details: exposure from hatching to L2 stage; scored at L3 and young adult
Method: To see the preventative effects of the candidate drug compounds on protein misfolding and aggregation, five gravid adult worms were placed onto each drug plate and grown at 20° C. for approximately 3 days. 35-40 Fl worms at L2 stage were picked and transferred to a control plate with the same concentration of control solvent compared to the drug plate. Thirty worms at L3 stage were counted for aggregate number 8 hours later. Thirty young adults were analyzed 32 hours later.
as §3, §4, §5
C=number of aggregates for worms that received pre-L2 exposure and were then removed to solvent control plates
as §6

[4] = tested on: Pdat-1::GFP+Pdat-1::α-synuclein+Pdat-1:: torsinA (ΔE) worms; assay: α-synuclein toxicity assay, mutant torsinA
Text: as §1, §2

[5] = tested on: worms expressing Punc-54::Q82::GFP+Punc-54::torsinA (ΔE) with a mutant torsinA only; assay: Protein aggregate assay in worms with mutant torsinA only
Method: (§7) C elegans nematodes were grown at 20° C. on NGM plates as described by Brenner (Brenner, Genetics, 1974, 77: 71-94). Several transgenic C. elegans lines were used for primary screens of the Prestwick small molecule library. A transgenic worm line expressing Punc-54::Q82-GFP; with both wild type (“wt”) (Punc=54: :torsinA) or mutant (Punc-54::torsinA(ΔE)). Torsin-A expresses a phenotype that results in visible protein aggregation under fluorescent microscope. Transgenic worms were plated on drug plates and progeny were studied for a return to soluble protein. […]
(§8) The screening assays used to identify the compounds use protein aggregation readouts to determine the specificities of molecular action. […]
(§9) The methods for the aggregate analysis assay are described in Caldwell et al. (Hum Mol Genetics, 2003, 12(3): 307-319). […] MetaMorph Software (Universal Imaging Inc.) was used for pseudocoloration of images, image overlay, and aggregate size quantitation. For each worm line analyzed, average aggregate size was determined by capturing images of all aggregates in the posterior region of 30 L3-staged animals (for Q82::GFP aggregates) or all aggregates in 30 adult animals/day (for Q19::GFP analyses) at 1000× magnification. […]

[6] = tested on: worms containing Pdat-1::GFP+Pdat-1::torsinA+Pdat-1::torsinA (ΔE) after 6-OHDA exposure; assay: 6-OHDA dopaminergic neurodegeneration in worms with wt and mutant torsinA; details: wt and mutant torsinA co-expressed; 6-OHDA insult
Text: Previous studies have established that the “CEP” and “ADE” mechanosensory neurons in C. elegans undergo readily discernable neuronal degeneration after treatment with the dopamine-selective neurotoxin 6-OHDA (Nass et al, 2002). The toxicity of 6-OHDA is mediated through the formation of reactive oxygen species by the generation of hydrogen peroxide and […] via a nonenzymatic auto-oxidation process (Kumar et al., 1995; Foley and Riederer, 2000). […] This degeneration can be monitored in living animals by coexpressing with green fluorescent protein and categorized into three temporally and morphologically distinct stages, including neuronal process blebbing, cell body rounding with process loss, and cell body loss. These characteristic changes reproducibly appear in this order within a few hours, recapitulating observations in MPTP-treated monkeys and in 6-OHDA-treated rats, in which damage to striatal terminals leads to retrograde changes and precedes that of SNpc cell bodies (Berger et al., 1991; Herkenham et al., 1991). The actions of torsin protein in 6-OHDA-mediated neurodegeneration has recently been shown (Cao et al., J Neurosci, 25(1):3801-3812). Animals were treated with various concentrations of 6-OHDA and neurodegeneration was followed over time, as worms develop and age, by co-expression of a dopamine GFP marker in these transparent animals.
C. elegans nematodes were grown at 25° C. on NGM plates as described by Brenner (Brenner, Genetics, 1974, 77: 71-94). Two transgenic C. elegans lines were used for primary screens of the Prestwick small molecule library. A transgenic worm line expressing Pdat-1::GFP; with both wild type (Pdat-1::torsinA) or mutant (Pdat-1:::torsinA(ΔE)). Torsin-A expresses a phenotype that results in visible neurodegeneration after treatment with 6-OHDA. Transgenic worms were plated on drug plates and progeny were studied for morphological changes in the 8 dopaminergic neurons present in C. elegans.
Drugs were administered to C. elegans according to a standard procedure (Rand and Johnson, Methods Cell Biol, 1995, 48: 187-204) by mixing the solubilized drug with the agar medium on which the worms are grown. This mode of administration allows the continuous exposure of worms to the drug.
Each drug was first dissolved in an appropriate solvent, followed by adding the drug solution into pre-autoclaved media, with the volume of drug solution already taken into account. All drugs were tested at 0.5 mg/ml initial concentration, a few of which were toxic to worms and then tested at 0.1 mg/ml or 0.025 mg/ml concentration. Each plate was seeded with 100 μl concentrated E. coli OP50 bacteria
Age-synchronized worms were obtained by treating gravid adults with 2% sodium hypochlorite and 0.5M NaOH to isolate embryos (Lewis Fleming, 1995). These embryos were grown for 30 h at 25° C. At the L3 stage, larvae were incubated with 10 mM (50 mM) 6-OHDA and 2 mM (or 10 mM) ascorbic acid for 1 h with gentle agitation every 10 minutes. (Nass et al., 2002). The worms were then washed and spread onto NGM plates seeded with bacteria (OP50) and scored at time points ranging from 2 to 72 h after 6-OHDA exposure.
Immediately after 6-OHDA treatment, worms containing the transgenes were selected under a fluorescence dissecting microscope, based on the presence of GFP, and transferred to a fresh NGM plate seeded with OP50. For each time point, 30-40 worms were applied to a 2% agarose pad and immobilized with 3 mM levamisole. Worms were examined under a Nikon Eclipse E800 epifluorescence microscope equipped with an Endow GFP filter cube (Chroma Technology, Rockingham, Vt.). For ease of analysis, only the four CEP DA neurons in the head of the worm were scored. […]

[7] = tested on: transgenic worm line Pdat-1::CAT-2; assay: Neurodegeneration by overexpression of cat-2 (tyrosine hydroxylase); details: Pdat-1::CAT-2, result in words
Text: Overexpression of cat-2, the worm homologue for tyrosine hydroxylase, results in increased intraneuronal dopamine production and a characteristic loss of dopaminergic neurons in 75% of transgenic worms as compared to wild type (Cao et al., J Neurosci, 25(1):3801-3812). Co-expression of worm or human torsin proteins reduces the loss of dopaminergic neurons to a slight degree although neuronal degeneration is still present. The purpose of these experiments was to determine the effect of small molecule compounds in the Prestwick library in another different C. elegans model of neurodegeneration.
Worms were cultured using the same methods described above. A transgenic worm line expressing Pdat-1::CAT-2 expresses a phenotype that results in visible neurodegeneration at all developmental stages in an integrated line, in which only approximately 55% of 7 day old animals maintained all four CEP neurons. […] Compound 166 is an example of one such compound.
To further examine the neuroprotective effect of meclofenamic acid and lidocaine, we used a transgenic line (Pdat-1::CAT-2) we previously described (Cao et al., J Neurosci, 2005, 25(1): 3801-3812). Overexpression of cat-2, the C. elegans homolog of the tyrosine hydroxylase (“TH”) gene, causes a high level of DA production and as a result, DA neuron degeneration is observed (Cao et al., J Neurosci, 2005, 25(1): 3801-3812). […] We also tested whether meclofenamic acid was able to suppress CAT-2-induced neurodegeneration. […] Therefore, meclofenamic acid can protect DA neurons from degeneration produced by overexpression of the dopamine precursor, tyrosine hydroxylase.

[8] = tested on: transgenic worms containing the transgene Punc-54::Q82::GFP without any torsinA expression; assay: Protein aggregate assay in worms without torsinA expression
Method: as §7, §8, §9

[9] = tested on: worms expressing Punc-54::Q82::GFP+Punc-54::torsinA with wt torsinA only; assay: Protein aggregate assay in worms with wt torsinA only
Method: (§10) C elegans nematodes were grown at 20° C. on NGM plates as described by Brenner (Brenner, Genetics, 1974, 77: 71-94). Several transgenic C. elegans lines were used for primary screens of the Prestwick small molecule library. A transgenic worm line expressing Punc-54::Q82-GFP; with both wild type (“wt”) (Punc=54: :torsinA) or mutant (Punc-54::torsinA(ΔE)). Torsin-A expresses a phenotype that results in visible protein aggregation under fluorescent microscope. Transgenic worms were plated on drug plates and progeny were studied for a return to soluble protein.
(§11) Drugs were administered to C. elegans according to a standard procedure (Rand and Johnson, Methods Cell Biol, 1995, 48: 187-204), by mixing the solubilized drug with the agar medium on which the worms are grown. This mode of administration allows the continuous exposure of worms to the drug.
Each drug was first dissolved in an appropriate solvent, followed by adding the drug solution into pre-autoclaved media, with the volume of drug solution already taken into account. […]
as §8, §9
(§12) To see the effect of the candidate compounds on suppressing protein misfolding and aggregation, five gravid adult worms were placed onto each drug plate and grown at 20° C. for approximately 3 days. Thirty Fl worms at L3 stage and young adult stage were counted for aggregate number.

[10] = tested on: worms containing Punc-54::Q82::GFP+Punc-54::torsinA+Punc54::torsinA (ΔE); assay: Screen for reduction of polyglutamine protein aggregates in worms with wt and mutant torsinA; details: differentiated by Q82::GFP lines without torsinA, with wt torsinA or with mutant torsinA
Method: as §10, §11
Each drug was first dissolved in an appropriate solvent, followed by adding the drug solution into pre-autoclaved media, with the volume of drug solution already taken into account. […] Each plate was seeded with 100 μl concentrated E. coli OP50 bacteria.
as §8, §9, §12

Row | SMILES | enhanced wild type DA neuron survival [1] | corrective effect on protein aggregation [2] | preventative effect on protein aggregation [3] | enhanced DA neuron survival [4] | reduction of aggregation [5] | neuroprotection of dopaminergic neurons against 6-OHDA [6] | neuroprotective action on dopaminergic neurons overexpressing cat-2 [7] | reduction of protein aggregates [8] | reduction of protein aggregation [9] | Specificity in worm assay [10]
1 | CN(C)C(=O)C(CCN1CCC(O)(c2ccc(Cl)cc2)CC1)(c1ccccc1)c1ccccc1 [Compound 144, Loperamide HCl] | failed to show any significant neuroprotection | seem to be beneficial | seem to be beneficial | 39.5±1.4% | reduced aggregation | – | – | – | – | –
2 | NCc1ccc(S(N)(=O)=O)cc1 [Compound 166, Mafenide] | – | – | – | – | – | little to no neuroprotection | demonstrated a reduction in the standardized decrease in dopaminergic neurodegeneration | reduced the presence of protein aggregates | – | –
3 | CCn1cc(C(=O)O)c(=O)c2cc3c(cc21)OCO3 [Compound 193, Oxolinic Acid] | 31.4±3.7% | seem to be beneficial | seem to be beneficial | no significant neuroprotection | – | – | – | – | reduced protein aggregation | wt torsinA
4 | CCCCOc1ccc(C(=O)CCN2CCCCC2)cc1 [Compound 264, Dyclonine HCl] | – | – | – | – | – | – | – | reduced the presence of protein aggregates | – | –
